Patent US20150011588A1, “Novel formulation, omeprazole antacid complex-immediate release for rapid and sustained suppression of gastric acid” (priority 2003, published 2015)

What was measured:
clinical = conditions: human, plasma, oral, 40 mg
Source text: Pharmacokinetic parameters disclosed herein include: (1) parameters obtained directly from the data without interpolation, including plasma omeprazole concentration, peak omeprazole plasma concentration (Cmax), and time to peak omeprazole plasma concentration (Tmax); (2) terminal elimination rate constant (kel) determined from a log-linear regression analysis of the terminal plasma omeprazole concentrations; (3) terminal elimination half-life (t1/2) calculated as 0.693/kel; (4) area under the omeprazole plasma concentration-time curve from time zero to time “t” (AUCo-t), calculated using the trapezodial rule with the plasma concentration at time “t” being the last measurable concentration; (5) area under the omeprazole plasma concentration-time curve from time zero to time infinity (AUC0-inf), calculated as AUC0-t+Ct/kel, where Ct is the last measurable plasma concentration and kel is the terminal elimination rate constant defined above.
Blood samples (10 mL) were taken within 30 minutes predose and up to 12 hours postdose; eg, postdose at 5, 10, 15, 30, 45, 60, 90, 120, 180, 240, 300, 360 minutes, and up to 12 hours in some studies.
(§1) This trial protocol is designed as a single-dose crossover trial. […] Each dose was followed by a 7-14 day washout. The same treatment was administered to all subjects in each trial period:
For the periods including omeprazole powder plus tablet administration, the subject received omeprazole powder administered directly onto the dorsal mid-tongue Immediately thereafter, subjects were given one chewable antacid tablet, which they began chewing. The subject continued to chew the tablet while mixing it with omeprazole powder, and carefully avoided swallowing the powder immediately. One minute after initiating chewing (and after completely swallowing trial medications), each subject drank 120 mL of water, swishing the oral contents before swallowing.
Pharmacokinetic evaluations include plasma omeprazole and esomeprazole concentration over time; and plasma omeprazole and esomeprazole C., Tmax, kel, T1/2, AUC(0-t), and AUC(0-inf).

gastric acidity = assay: SAN-15-CO1C trial: gastric pH monitoring, omeprazole powder with or without antacid; assay type: in vivo, human; conditions: omeprazole 40 mg, administered 1 hour pre-meal, 10 subjects
Procedure: Pharmacodynamic parameters disclosed herein include: (1) mean gastric acid concentration; (2) onset time of gastric pH increase; (3) gastric pH over time; (4) length of time gastric pH is >4; (5) percentage (%) of time gastric pH is time pH>4 (in figures as “% time pH>4”); (6) median gastric pH; and (7) integrated gastric acidity, which is expressed as mM acid×time, (mmol acid×hr/L) is calculated as the cumulative time-weighted average of mean gastric acid concentration, as follows:
as §1
For periods requiring a meal, subjects fasted for at least 10 hours and were allowed water ad libitum until 2 hours prior to administration. Gastric pH monitoring was recorded for up to 11 hours beginning at time zero. The standard breakfast was ingested over 30 minutes beginning 90 minutes after the initiation of pH monitoring.
For periods including dosing after a meal, subjects fasted for at least 10 hours. On Day 0, ninety minutes of probe pH monitoring was started prior to initiating ingestion of the standardized breakfast, which was eaten within 30 minutes. The pH monitoring continued for 9.5 hours after initiating ingestion of breakfast. […]

AUC(0-inf) (clinical): 225 ng·h/mL
AUC(0-t) (clinical): 225 ng·h/mL
Cmax (clinical): 186 ng/mL
SMILES: COc1ccc2[nH]c([S+]([O-])Cc3ncc(C)c(OC)c3C)nc2c1 (stereo not shown) [Omeprazole Powder]
Median Integrated Gastric Acidity 0-210 min. Post-meal (gastric acidity): 35 mmol·h/L
